Results: PubChem BioAssay (NCI)
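Each compound was tested at five concentrations against cells in 96-well plates for 48 hours. TGI marks complete inhibition of growth.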

How the values were obtained:
Assay in all cases: NCI-60 cell line screen, 48 h
[1] = test system: OVCAR-3 ovarian
[2] = test system: SNB-19 CNS
[3] = test system: COLO 205 colon
[4] = test system: NCI-H522 lung
[5] = test system: HL-60(TB) leukemia
[6] = test system: SK-MEL-5 melanoma
[7] = test system: HOP-62 NSCLC
[8] = test system: SW-620 colon
[9] = test system: NCI-H460 lung
[10] = test system: SNB-78 CNS
[11] = test system: RXF 393 renal
[12] = test system: SK-MEL-2 melanoma
[13] = test system: OVCAR-8 ovarian
[14] = test system: HT29 colon
[15] = test system: A498 renal
[16] = test system: CCRF-CEM leukemia
[17] = test system: KM12 colon
[18] = test system: SN12C renal
[19] = test system: MALME-3M melanoma
[20] = test system: SF-268 CNS
[21] = test system: UO-31 renal
[22] = test system: ACHN renal
[23] = test system: SK-OV-3 ovarian
[24] = test system: KM20L2 colon
[25] = test system: A549 NSCLC
[26] = test system: SK-MEL-28 melanoma
[27] = test system: EKVX NSCLC
[28] = test system: DMS 273 small cell lung
[29] = test system: U251 CNS
[30] = test system: 786-0 renal
[31] = test system: OVCAR-4 ovarian
[32] = test system: SF-295 CNS
[33] = test system: OVCAR-5 ovarian
[34] = test system: SNB-75 CNS
[35] = test system: UACC-257 melanoma
[36] = test system: RPMI-8226 leukemia
[37] = test system: M14 melanoma
[38] = test system: NCI-H23 lung
[39] = test system: HCT-15 colon
[40] = test system: M19-MEL melanoma
[41] = test system: SR leukemia
[42] = test system: DMS 114 small cell lung
[43] = test system: K-562 leukemia
[44] = test system: SF-539 CNS
[45] = test system: CAKI-1 renal
[46] = test system: MOLT-4 leukemia
[47] = test system: LOX IMVI melanoma
[48] = test system: LXFL 529 NSCLC
[49] = test system: UACC-62 melanoma
[50] = test system: XF 498 CNS
[51] = test system: HCT-116 colon
[52] = test system: DLD-1 colon
[53] = test system: HCC-2998 colon
[54] = test system: TK-10 renal
[55] = test system: NCI-H226 lung
[56] = test system: IGROV1 ovarian
[57] = test system: HOP-92 NSCLC

Q: What does the source list for `CC(=O)OCC(OC(C)=O)C(OC(C)=O)C(OC(C)=O)C(=O)CNn1c(-c2ccc(C)cc2)nc2ccccc2c1=O` (centres undefined)?
A: TGI [1]: > 100 µM; TGI [2]: > 100 µM; TGI [3]: > 100 µM; TGI [4]: > 100 µM; TGI [5]: > 100 µM; TGI [6]: > 100 µM; TGI [7]: > 100 µM; TGI [8]: > 100 µM; TGI [9]: > 100 µM; TGI [10]: > 100 µM; TGI [11]: > 100 µM; TGI [12]: > 100 µM; TGI [13]: > 100 µM; TGI [14]: > 100 µM; TGI [15]: > 100 µM; TGI [16]: > 100 µM; TGI [17]: > 100 µM; TGI [18]: > 100 µM; TGI [19]: > 100 µM; TGI [20]: > 100 µM; TGI [21]: > 100 µM; TGI [22]: > 100 µM; TGI [23]: > 100 µM; TGI [24]: > 100 µM; TGI [25]: > 100 µM; TGI [26]: > 100 µM; TGI [27]: > 100 µM; TGI [28]: > 100 µM; TGI [29]: > 100 µM; TGI [30]: > 100 µM; TGI [31]: > 100 µM; TGI [32]: > 100 µM; TGI [33]: > 100 µM; TGI [34]: > 100 µM; TGI [35]: > 100 µM; TGI [36]: > 100 µM; TGI [37]: > 100 µM; TGI [38]: > 100 µM; TGI [39]: > 100 µM; TGI [40]: > 100 µM; TGI [41]: > 100 µM; TGI [42]: > 100 µM; TGI [43]: > 100 µM; TGI [44]: > 100 µM; TGI [45]: > 100 µM; TGI [46]: > 100 µM; TGI [47]: > 100 µM; TGI [48]: > 100 µM; TGI [49]: > 100 µM; TGI [50]: > 100 µM; TGI [51]: > 100 µM

Q: With `COc1cc(C2Oc3cc(-c4oc5cc(O)cc(O)c5c(=O)c4O)ccc3OC2CO)ccc1O` (centres undefined) as the compound, how does the TGI [1] read?
A: 54.8 µM

Q: What about the TGI [52] of the same compound?
A: > 100 µM

Q: What about the TGI [2] of the same compound?
A: 81.7 µM

Q: What about the TGI [3] of the same compound?
A: 75.3 µM

Q: And the TGI [4]?
A: > 30 µM

Q: What about the TGI [5] of the same compound?
A: > 64.5 µM

Q: And the TGI [6]?
A: 96.5 µM

Q: What about the TGI [7] of the same compound?
A: > 80.4 µM

Q: What about the TGI [8] of the same compound?
A: > 100 µM

Q: What about the TGI [53] of the same compound?
A: > 78.9 µM

Q: And the TGI [54]?
A: 58.3 µM

Q: And the TGI [9]?
A: 12.7 µM

Q: And the TGI [10]?
A: > 100 µM

Q: What about the TGI [11] of the same compound?
A: 6.02 µM

Q: And the TGI [12]?
A: 32.6 µM

Q: What about the TGI [13] of the same compound?
A: > 100 µM

Q: And the TGI [14]?
A: 69.7 µM

Q: What about the TGI [15] of the same compound?
A: > 49.3 µM

Q: And the TGI [16]?
A: > 100 µM

Q: What about the TGI [17] of the same compound?
A: > 100 µM

Q: And the TGI [18]?
A: > 95.2 µM

Q: And the TGI [19]?
A: 67 µM

Q: What about the TGI [20] of the same compound?
A: > 57.2 µM

Q: And the TGI [21]?
A: 6.81 µM

Q: What about the TGI [22] of the same compound?
A: 29.1 µM

Q: And the TGI [23]?
A: > 95.5 µM

Q: And the TGI [25]?
A: > 100 µM

Q: And the TGI [26]?
A: 62.3 µM

Q: And the TGI [55]?
A: 82.1 µM

Q: What about the TGI [28] of the same compound?
A: 31.2 µM

Q: What about the TGI [29] of the same compound?
A: > 100 µM

Q: What about the TGI [30] of the same compound?
A: 72.8 µM

Q: And the TGI [31]?
A: > 76.7 µM

Q: What about the TGI [32] of the same compound?
A: 64.8 µM

Q: What about the TGI [34] of the same compound?
A: > 60.7 µM

Q: What about the TGI [56] of the same compound?
A: > 100 µM

Q: What about the TGI [35] of the same compound?
A: > 100 µM

Q: What about the TGI [36] of the same compound?
A: > 56.4 µM

Q: What about the TGI [37] of the same compound?
A: > 70.5 µM

Q: And the TGI [38]?
A: 34.9 µM

Q: And the TGI [39]?
A: > 100 µM

Q: What about the TGI [40] of the same compound?
A: > 100 µM

Q: What about the TGI [41] of the same compound?
A: > 54.1 µM

Q: What about the TGI [42] of the same compound?
A: > 100 µM

Q: And the TGI [43]?
A: > 100 µM

Q: What about the TGI [44] of the same compound?
A: 34.3 µM

Q: What about the TGI [45] of the same compound?
A: > 73.2 µM

Q: And the TGI [46]?
A: > 38.9 µM

Q: And the TGI [48]?
A: > 100 µM

Q: What about the TGI [49] of the same compound?
A: > 100 µM

Q: What about the TGI [50] of the same compound?
A: > 62.4 µM

Q: And the TGI [57]?
A: 52 µM

Q: And the TGI [51]?
A: > 37.1 µM
